Laboratory results as given in ChEMBL document CHEMBL6074692, “Design, synthesis, and evaluation of novel benzofuran and pyrazole-based derivatives as dual AChE/BuChE inhibitors with antioxidant properties for Alzheimer's disease management” (Eur J Med Chem, 2025).
Values after ≈ are worked out from the molar mass of the structure shown. Active and inactive are the calls of the source. The calls are words filed in the database; no cut-off is given here.

Legend:
Cholinesterase = Cholinesterase (Homo sapiens, UniProt P06276); assay: Inhibition of BuChE (unknown origin)
[1] = Antioxidant activity assessed as DPPH radical scavenging activity; assay type: functional
Acetylcholinesterase [2] = molecular target: T1, Acetylcholinesterase (Homo sapiens, UniProt P22303); assay: Inhibition of AChE (unknown origin) by Ellman's method
[3] = Toxicity in male Wistar rat assessed as WBC level at 10 mg/kg, po (reference value: 4.60 +/- 0.61 10^3/cmm); assay type: organism-based; conditions: in vivo
[4] = Toxicity in male Wistar rat assessed as RBC level measured per million cells at 10 mg/kg, po (reference value: 6.96 +/- 0.45 /cm); assay type: organism-based; conditions: in vivo
[5] = Toxicity in male Wistar rat assessed as ALP level at 10 mg/kg, po (reference value: 137.18 +/- 7.04 U/L); assay type: organism-based; conditions: in vivo
Acetylcholinesterase [6] = molecular target: T1, Acetylcholinesterase; assay: Mixed inhibition of AChE (unknown origin)
[7] = Toxicity in male Wistar rat assessed as HB level at 10 mg/kg, po (reference value: 13.11 +/- 0.48 g/dL); assay type: organism-based; conditions: in vivo
[8] = Chronic toxicity in male Wistar rat assessed as negative side effects at 10 mg/kg, po measured after 1 month; assay type: organism-based; conditions: in vivo, 730 h, time 1 months
[9] = Toxicity in male Wistar rat assessed as RDW-CV level at 10 mg/kg, po (reference value: 16.93 +/- 1.69 %); assay type: organism-based; conditions: in vivo
[10] = Toxicity in male Wistar rat assessed as histological change in renal parenchyma at 10 mg/kg, po by H and E staining based analysis; assay type: organism-based; conditions: in vivo
[11] = Toxicity in male Wistar rat assessed as MPV level at 10 mg/kg, po (reference value: 7.01 +/- 0.28 fL); assay type: organism-based; conditions: in vivo
[12] = Toxicity in male Wistar rat assessed as histopathological change in kidney at 10 mg/kg, po by H and E staining based analysis; assay type: organism-based; conditions: in vivo
[13] = Toxicity in male Wistar rat assessed as urea level at 10 mg/kg, po (reference value: 29.89 +/- 1.84 mg/dL); assay type: organism-based; conditions: in vivo
[14] = Toxicity in male Wistar rat assessed as total bilirubin level at 10 mg/kg, po (reference value: 0.68 +/- 0.11 mg/dL); assay type: organism-based; conditions: in vivo
[15] = Chronic toxicity in male Wistar rat assessed as drug tolerance at 10 mg/kg, po measured after 1 month; assay type: organism-based; conditions: in vivo, 730 h, time 1 months
[16] = Toxicity in male Wistar rat assessed as decrease in proliferation of Kupffer cells at 10 mg/kg, po by H and E staining based analysis; assay type: organism-based; conditions: in vivo
[17] = Toxicity in male Wistar rat assessed as creatinine level at 10 mg/kg, po (reference value: 0.68 +/- 0.1 mg/dL); assay type: organism-based; conditions: in vivo
[18] = Toxicity in male Wistar rat assessed as MCHC level at 10 mg/kg, po (reference value: 32.52 +/- 2.48 g/dL); assay type: organism-based; conditions: in vivo
[19] = Toxicity in male Wistar rat assessed as ALT level at 10 mg/kg, po (reference value: 42.18 +/- 3.35 U/L); assay type: organism-based; conditions: in vivo
[20] = Toxicity in male Wistar rat assessed as AST level at 10 mg/kg, po (reference value: 78.16 +/- 9.37 U/L); assay type: organism-based; conditions: in vivo
[21] = Toxicity in male Wistar rat assessed as MCH level at 10 mg/kg, po (reference value: 18.50 +/- 1.52 pg); assay type: organism-based; conditions: in vivo
[22] = Toxicity in male Wistar rat assessed as albumin level at 10 mg/kg, po (reference value: […]); assay type: organism-based; conditions: in vivo
[23] = Toxicity in male Wistar rat assessed as haematocrit level at 10 mg/kg, po (reference value: 39.01 +/- 1.12 %); assay type: organism-based; conditions: in vivo
[24] = Toxicity in male Wistar rat assessed as MCV level at 10 mg/kg, po (reference value: 59.92 +/- 2.2 fL); assay type: organism-based; conditions: in vivo

T1 sequence (P22303 whole entry): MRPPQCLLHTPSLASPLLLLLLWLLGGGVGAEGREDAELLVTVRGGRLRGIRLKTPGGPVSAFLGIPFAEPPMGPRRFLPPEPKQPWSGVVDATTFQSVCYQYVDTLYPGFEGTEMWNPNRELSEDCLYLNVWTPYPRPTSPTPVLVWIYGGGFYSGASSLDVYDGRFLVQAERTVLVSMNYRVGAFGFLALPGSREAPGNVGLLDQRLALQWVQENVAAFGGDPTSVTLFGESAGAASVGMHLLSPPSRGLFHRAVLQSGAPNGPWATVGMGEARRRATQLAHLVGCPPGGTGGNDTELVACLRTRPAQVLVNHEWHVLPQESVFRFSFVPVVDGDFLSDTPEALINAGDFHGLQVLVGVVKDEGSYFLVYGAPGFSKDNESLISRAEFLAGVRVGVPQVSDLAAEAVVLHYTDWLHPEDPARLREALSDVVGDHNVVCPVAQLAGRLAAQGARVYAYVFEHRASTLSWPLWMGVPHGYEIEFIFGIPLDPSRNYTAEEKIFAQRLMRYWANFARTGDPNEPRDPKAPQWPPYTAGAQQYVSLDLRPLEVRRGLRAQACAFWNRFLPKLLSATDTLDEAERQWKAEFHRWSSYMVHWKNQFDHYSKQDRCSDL
Chain of Cholinesterase (P06276 whole entry): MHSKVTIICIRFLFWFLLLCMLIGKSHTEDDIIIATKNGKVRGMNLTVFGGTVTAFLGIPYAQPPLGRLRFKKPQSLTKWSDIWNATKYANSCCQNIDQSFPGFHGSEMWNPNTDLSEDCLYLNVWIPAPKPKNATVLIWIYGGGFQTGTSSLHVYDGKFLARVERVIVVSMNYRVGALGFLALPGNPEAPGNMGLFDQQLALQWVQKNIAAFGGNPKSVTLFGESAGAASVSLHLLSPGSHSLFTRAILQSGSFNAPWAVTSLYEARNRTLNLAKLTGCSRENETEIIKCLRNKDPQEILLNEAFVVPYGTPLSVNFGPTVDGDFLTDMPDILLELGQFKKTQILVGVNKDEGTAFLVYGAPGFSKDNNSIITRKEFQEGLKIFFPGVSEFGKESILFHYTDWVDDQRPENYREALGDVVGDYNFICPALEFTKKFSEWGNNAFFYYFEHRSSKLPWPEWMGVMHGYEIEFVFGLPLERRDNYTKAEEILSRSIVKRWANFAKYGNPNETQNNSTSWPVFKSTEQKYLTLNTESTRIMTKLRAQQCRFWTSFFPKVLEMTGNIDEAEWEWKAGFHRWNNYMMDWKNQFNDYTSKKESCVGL

Molecule `Cc1ccc(C(=O)c2coc3ccc(OCC(=O)Nc4ccccc4)cc23)cc1` has an IC50 (Cholinesterase) of 18.6 µM, an IC50 [1] of 363 µg/mL (≈ 942 µM) and an IC50 (Acetylcholinesterase [2]) of 3.22 µM.
`Cc1ccc(-c2[nH]ncc2-c2cc(OCC(=O)Nc3ccccc3)ccc2O)cc1` gave an IC50 [1] of 3.24 µg/mL (≈ 8.11 µM) and an IC50 (Acetylcholinesterase [2]) of 40.8 µM.
Work on `O=C(COc1ccc(O)c(-c2cn[nH]c2-c2ccc(Cl)cc2)c1)Nc1ccc(Cl)cc1` yielded an IC50 [1] of 3.18 µg/mL (≈ 7 µM) and an IC50 (Acetylcholinesterase [2]) of 119 µM.
Work on `O=C1O[C@H]([C@@H](O)CO)C(O)=C1O` [ASCORBIC ACID] yielded an IC50 [1] of 2.85 µg/mL (≈ 16.2 µM).
In the case of `Cc1ccc(NC(=O)COc2ccc(O)c(-c3cn[nH]c3-c3ccc(Cl)cc3)c2)cc1`, the IC50 [1] is reported as 4.94 µg/mL (≈ 11.4 µM) and the IC50 (Acetylcholinesterase [2]) is reported as 43.4 µM.
For `Cc1ccc(NC(=O)COc2ccc3occ(C(=O)c4ccc(C)cc4)c3c2)cc1`, the IC50 [1] was 240 µg/mL (≈ 601 µM) and the IC50 (Acetylcholinesterase [2]) was 59.3 µM.
With `Cc1ccc(NC(=O)COc2ccc(O)c(-c3cn[nH]c3-c3ccc(C)cc3)c2)cc1` the IC50 (Cholinesterase) was 8.63 µM, the IC50 [1] was 4.26 µg/mL (≈ 10.3 µM) and the IC50 (Acetylcholinesterase [2]) was 4.76 µM.
In the case of `Cc1ccc(NC(=O)COc2ccc(O)c(-c3cn[nH]c3-c3ccccc3)c2)cc1`, the IC50 [1] is reported as 9.93 µg/mL (≈ 24.9 µM) and the IC50 (Acetylcholinesterase [2]) is reported as 29.3 µM.
For `O=C(COc1ccc2occ(C(=O)c3ccc(Cl)cc3)c2c1)Nc1ccccc1`, the IC50 (Cholinesterase) was 1.26 µM, the IC50 [1] was 153 µg/mL (≈ 377 µM) and the IC50 (Acetylcholinesterase [2]) was 0.961 µM.
With `O=C(COc1ccc2occ(C(=O)c3ccccc3)c2c1)Nc1ccccc1` the IC50 (Cholinesterase) was 3.39 µM, the IC50 [1] was 587 µg/mL (≈ 1580 µM) and the IC50 (Acetylcholinesterase [2]) was 2.07 µM.
For `O=C(COc1ccc(O)c(-c2cn[nH]c2-c2ccccc2)c1)Nc1ccc(Cl)cc1`, the IC50 [1] was 2.59 µg/mL (≈ 6.17 µM) and the IC50 (Acetylcholinesterase [2]) was 40.5 µM.
In the case of `O=C(COc1ccc2occ(C(=O)c3ccccc3)c2c1)Nc1ccc(Cl)cc1`, the IC50 [1] is reported as 132 µg/mL (≈ 325 µM) and the IC50 (Acetylcholinesterase [2]) is reported as 40.6 µM.
In the case of `O=C(COc1ccc(O)c(-c2cn[nH]c2-c2ccc(Cl)cc2)c1)Nc1ccccc1`, the IC50 [1] is reported as 5.87 µg/mL (≈ 14 µM) and the IC50 (Acetylcholinesterase [2]) is reported as 13.7 µM.
For `O=C(COc1ccc(O)c(-c2cn[nH]c2-c2ccccc2)c1)Nc1ccccc1`, the IC50 [1] was 3.07 µg/mL (≈ 7.97 µM) and the IC50 (Acetylcholinesterase [2]) was 50.2 µM.
Molecule `Cc1ccc(C(=O)c2coc3ccc(OCC(=O)Nc4ccc(Cl)cc4)cc23)cc1` has an IC50 [1] of 732 µg/mL (≈ 1740 µM) and an IC50 (Acetylcholinesterase [2]) of 52 µM.
For `Cc1ccc(-c2[nH]ncc2-c2cc(OCC(=O)Nc3ccc(Cl)cc3)ccc2O)cc1`, the Activity [3] was 4.86 10^3/mm3, the Activity [4] was 7.14 10^6/mm3 and the Activity [5] was 137.33 U/L. For the same molecule, the inhibition (Acetylcholinesterase [6]) was “Active”, the Activity [7] was 13.28 g/dL and the IC50 (Cholinesterase) was 4.26 µM. For the same molecule, the Activity [8] was “Non-toxic”, the Activity [9] was 16.64% and the IC50 [1] was 3.15 µg/mL (≈ 7.26 µM). The Activity [10] was “Non-toxic”, the Activity [11] was 6.91 fL and the IC50 (Acetylcholinesterase [2]) was 2.86 µM. The Activity [12] was “Non-toxic”, the Activity [13] was 30.25 mg/dL and the Activity [14] was 0.63 mg/dL. The Activity [15] was “Non-toxic”, the Activity [16] was “Toxic” and the Activity [17] was 0.69 mg/dL. For the same molecule, the Activity [18] was 32.59 g/dL, the Activity [19] was 42.97 U/L and the Activity [20] was 76.11 U/L. For the same molecule, the Activity [21] was 19.51 pg, the Activity [22] was 3.31 g/dL and the Activity [23] was 38.32%. For the same molecule, the Activity [24] was 60.31 fL.
In the case of `O=C(COc1ccc2occ(C(=O)c3ccc(Cl)cc3)c2c1)Nc1ccc(Cl)cc1`, the IC50 [1] is reported as 630 µg/mL (≈ 1430 µM) and the IC50 (Acetylcholinesterase [2]) is reported as 18.1 µM.
With `Cc1ccc(NC(=O)COc2ccc3occ(C(=O)c4ccccc4)c3c2)cc1` the IC50 [1] was 262 µg/mL (≈ 680 µM) and the IC50 (Acetylcholinesterase [2]) was 21.4 µM.
`Cc1ccc(NC(=O)COc2ccc3occ(C(=O)c4ccc(Cl)cc4)c3c2)cc1` gave an IC50 [1] of 375 µg/mL (≈ 893 µM) and an IC50 (Acetylcholinesterase [2]) of 11.9 µM.
